This note sets out measurements from patent US10105313B2, “Uses of rose pigment compounds” (SUNTORY HOLDINGS LIMITED, priority 2014, dated 2018).

Holding throughout (format): biochemical
One test concerns the target hyaluronidase (Bos taurus, UniProt Q2YDK3). The experiment in a line: Hyaluronidase inhibition test. To be noted: for hyaluronidase inhibitory activity (in words): statement in the text; for inhibition at 20 µg/mL: test concentration 20 μg/ml; for inhibition at 20 µg/mL / inhibition at 40 µg/mL / inhibition at 80 µg/mL: read-out: Percent hyaluronidase inhibition (%); for inhibition at 40 µg/mL: test concentration 40 μg/ml. The method, then: Tests for hyaluronidase inhibition of the extract prepared in Example 2 (hereinafter referred to as the “blue rose petal extract”), the HP-20 column fractions of the blue rose petal extract (60% acetonitrile fractions) and rosadelphin A1 were carried out in accordance with a modified version of the method described by Yumie Maeda et al. in Shokukin Eiseigaku Zasshi (Journal of the Food Hygiene Society of Japan) 31(3), 233-237 (1990). Hyaluronic acid is decomposed by hyaluronidase to give N-acetylhexosamine. To measure the hyaluronidase inhibitory activity, the reducing terminal N-acetylglucosamine was quantified in terms of absorbance due to color development as labeled by p-dimethylaminobenzaldehyde (product of Wako Pure Chemical Industries, Ltd. which is hereinafter abbreviated as p-DAB).
A sample solution (40 μL) in 10% DMSO was mixed with 20 μL of 1000 U/mL hyaluronidase (product of Sigma) dissolved in 0.1 M acetate buffer (pH 4.0) and the mixture was preheated at 37° C. for 20 minutes. To the heated mixture, 40 μL of 0.5 mg/mL Compound 48/80 (product of Sigma) dissolved in the same buffer was added and the resulting mixture was allowed to settle at 37° C. for 20 minutes undisturbed until the hyaluronidase was activated. To the solution, 100 μL of a solution of 0.8 mg/mL potassium hyaluronate was added to give a final concentration of 0.4 mg/mL and reaction was effected at 37° C. for 40 minutes; thereafter, 40 μL of 0.4 N sodium hydroxide in solution was added and the mixture was cooled with ice to quench the reaction. To the reaction mixture, 40 μL of 0.8 M boric acid in solution adjusted to pH 9.1 with 6 N NaOH was added and the resulting mixture was boiled at 100° C. for 3 minutes. The mixture was then cooled to room temperature in ice bath; to the cooled mixture, 1.2 mL of 10 mg/mL p-dimethylaminobenzaldehyde (p-DAB) in solution was added while it was shielded from light and after reaction was effected at 37° C. for 20 minutes, the absorbance at 585 nm (A585) was measured. The hyaluronidase inhibitory activity of the sample was expressed in terms of percent inhibition calculated from the following formula: Percent inhibition (%)={1−(a−b)/(c−d)}×100
a: A585 of the sample solution to which the enzyme was added
b: A585 of the sample solution to which no enzyme was added
c: A585 of the control solution to which the enzyme was added
d: A585 of the control solution to which no enzyme was added.
A positive control was prepared by adding not the sample solution, but 800 μg/ml (1.56 mM as molar concentration) of sodium chromoglycate (product of Sigma which is hereinafter abbreviated as DSCG) in an amount of 40 μL to give a test concentration of 160 μg/ml.

The next test addresses T1, elastase (Sus scrofa, UniProt P00772).
T1 construct: purchased Sigma
The experiment in a line: Elastase inhibition test. To be noted: for elastase inhibiting activity (in words): statement in the text. The method, then:
The blue rose petal extract, fractions thereof as products of treatment on a column (60% acetonitrile fractions), rosadelphin A1, rosacyanin A1, and tellimagrandin 1 were subjected to an elastase inhibition test that was performed by the following method.
An enzyme solution was prepared by dissolving 0.1 ml of elastase (product of Sigma) in 0.2 M Tris buffer at pH 8.0 (hereinafter referred to as a Tris buffer) to give a concentration of 0.05 units/mL and diluted 100 folds just before use. A substrate solution was prepared by dissolving N-Succinyl-Ala-Ala-Ala-p-nitroanilide (product of Sigma) in a Tris buffer to give a concentration of 4 mM. To a 96-well plate, 50 μL of a solution of each sample dissolved in 10% DMSO and 50 μL of the enzyme solution were added and after mixing them with a plate shaker, the resulting mixture was preheated at 25° C. for 10 minutes. Subsequently, 100 μL of the substrate solution was added and after mixing with a plate shaker, reaction was carried out at 25° C. for 30 minutes and immediately thereafter, the liberation of p-nitroaniline was assayed by measuring the absorbance at a wavelength of 405 nm (hereinafter designated as A405). A405 measurement was also performed for a blank of sample solution that was prepared by adding a Tris buffer in place of the substrate solution, as well as for a control solution that was prepared by adding 10% DMSO in place of the sample solution. The inhibitory activity of each sample was calculated in terms of the percent inhibition determined by the following formula: Percent elastase inhibition (%)=[(f−e)−{(b−a)−(d−c)}]/(f−e)×100 […]
a: A405(0 min) of the sample solution for enzymatic reaction b: A405(30 min) of the sample solution for enzymatic reaction c: A405(0 min) of the blank of sample solution d: A405(30 min) of the blank of sample solution e: A405(0 min) of the control solution f: A405(30 min) of the control solution.

The test system of another test is collagenase Type IV. The test is described as follows: Collagenase inhibition test. Conditions: for collagenase inhibitory activity (in words): statement in the text. The method, then:
The blue rose petal extract, fractions thereof as products of treatment on a column (60% acetonitrile fractions), rosadelphin A1, rosacyanin A1, and tellimagrandin 1 were subjected to a collagenase inhibition test in accordance with a modified version of the method described in a document (Wunsch et al., Hoppe Seylers Z Physiol Chem., 333, 149-51 (1963)). For details, see below.
An enzyme solution was prepared by dissolving […] of collagenase Type IV (product of Sigma) in 1 mL of dissolved water to give a concentration of 100 μg/mL (55.1 units/mL) and diluted 50 folds just before use. A substrate solution was prepared by dissolving PZ-peptide (4-phenylazo-benzyloxycarbonyl-Pro-Leu-Gly-Pro-D-Arg-OH) (Pz-Pro-Leu-Gly-Pro-D-Arg-OH; product of Sigma) in a […] calcium chloride containing tris-HCl buffer (pH 7.1) to give a concentration of 0.5 μg/mL. To 20 μL of a solution of sample dissolved in 10% DMSO, 20 μL of the enzyme solution and 160 μL of the substrate solution were added and the mixture was subjected to reaction at 37° C. for 30 minutes. Subsequently, 400 μL of a 25 mM citric acid solution was added to quench the reaction and Pz-Pro-Leu in the reaction mixture was extracted with 2 mL of ethyl acetate. The resulting ethyl acetate layer was measured for absorbance at a wavelength of 320 nm, with ethyl acetate being used as a control. The inhibitory activity of each sample was calculated in terms of the percent inhibition determined by the following formula: Percent collagenase inhibition (%)={1−(a−b)/(c−d)}×100 […]
a: Absorbance after […] reaction in the presence of added sample b: Absorbance after […] reaction in the presence of added sample c: Absorbance after 30 min reaction in the absence of added sample d: Absorbance after 0 min reaction in the absence of added sample.

Where [1] appears, read: Table 3, test concentration 80 μg/ml.
Where [2] appears, read: Table 8, test concentration 40 μg/mL.
Where [3] appears, read: Table 8, test concentration 80 μg/mL.
Where [4] appears, read: Table 8, test concentration 160 μg/mL.
[5] abbreviates: Table 6, test concentration 40 μg/ml.

In brackets after ≈: the same amount, converted by molar mass. Entries after “also recorded” stand apart in the source; their conditions may differ.

hyaluronidase, sequence (Q2YDK3 entry or part of it): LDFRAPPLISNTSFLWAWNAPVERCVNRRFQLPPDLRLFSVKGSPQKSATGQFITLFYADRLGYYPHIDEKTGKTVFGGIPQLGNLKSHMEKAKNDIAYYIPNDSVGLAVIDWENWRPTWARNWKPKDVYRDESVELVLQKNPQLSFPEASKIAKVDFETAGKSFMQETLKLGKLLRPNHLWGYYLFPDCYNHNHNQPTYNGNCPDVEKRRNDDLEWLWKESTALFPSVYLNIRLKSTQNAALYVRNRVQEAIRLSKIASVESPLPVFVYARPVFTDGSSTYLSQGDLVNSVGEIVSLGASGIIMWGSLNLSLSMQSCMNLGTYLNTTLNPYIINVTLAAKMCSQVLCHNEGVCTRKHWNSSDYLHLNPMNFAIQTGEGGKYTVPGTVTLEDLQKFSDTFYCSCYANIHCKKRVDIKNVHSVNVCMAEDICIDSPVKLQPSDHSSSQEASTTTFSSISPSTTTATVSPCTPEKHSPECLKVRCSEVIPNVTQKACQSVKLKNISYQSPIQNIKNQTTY
T1 sequence (P00772 27-266): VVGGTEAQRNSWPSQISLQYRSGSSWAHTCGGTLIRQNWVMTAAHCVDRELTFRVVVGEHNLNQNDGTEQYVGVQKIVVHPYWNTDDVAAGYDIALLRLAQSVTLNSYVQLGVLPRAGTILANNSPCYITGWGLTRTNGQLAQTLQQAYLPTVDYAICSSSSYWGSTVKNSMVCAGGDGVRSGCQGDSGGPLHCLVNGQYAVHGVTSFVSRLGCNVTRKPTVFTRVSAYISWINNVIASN

`O=C(O[C@H]1[C@@H]2OC(=O)c3cc(O)c(O)c(O)c3-c3c(cc(O)c(O)c3O)C(=O)OC[C@H]2OC(O)[C@@H]1OC(=O)c1cc(O)c(O)c(O)c1)c1cc(O)c(O)c(O)c1` (some centres unmarked) [Tellimagrandin 1, tellimagrandin 1, reference compound]: the “IC50 (hyaluronidase inhibition)” value on hyaluronidase (Table 3) turned out to be 196.5 µg/mL (≈ 250 µM). In addition, the “Percent hyaluronidase inhibition (%)” value on hyaluronidase (setting [1]) is 64.8%. Also, the “hyaluronidase inhibitory activity (in words)” value on hyaluronidase is recorded as “also active, though not so active as rosadelphin A1”. The entries for the “Percent elastase inhibition (%)” value at elastase (setting [2]), at elastase (setting [3]) and on elastase (setting [4]) were 5.9%, 4.6% and 6.5%, respectively. The “elastase inhibiting activity (in words)” value is “weak activity” on elastase and “little activity” on elastase (listed as tellimagrandin 1). For the same compound, the “Percent collagenase inhibition (%)” value in the test on collagenase Type IV (setting [5]) was determined as 42.7%. For the same compound, the “collagenase inhibitory activity (in words)” value in the test with collagenase Type IV was “greater activity than the blue rose petal extract”.

Regarding `O=C([O-])c1cc(=O)c2c(OCC(O)COc3cccc4oc(C(=O)[O-])cc(=O)c34)cccc2o1.[Na+].[Na+]` [DSCG, sodium chromoglycate, reference compound], the “Percent hyaluronidase inhibition (%)” value at hyaluronidase (Table 3, positive control at 160 μg/ml) is given as “* Percent inhibition by 160 μg/ml DSCG: 22.3%”.

In the case of `CC(C)CCP(=O)([O-])NCC(=O)N1CCCC1C(=O)NC(C)C(=O)[O-].[K+].[K+]` [IP304, isoamylphosphonyl-Glycyl-L-Prolyl-L-Alanine, dipotassium salt, reference compound], the “Percent collagenase inhibition (%)” value in the test on collagenase Type IV (Table 5, test concentration 80 μg/mL) is recorded as “* Percent inhibition by 80 μg/mL IP304: 84.1%”; in the test on collagenase Type IV (setting [5]) it was “*Percent inhibition by 40 μg/ml IP304: 69.7%”.

For the compound `O=C(OC1C(O)OC2COC(=O)c3cc(Oc4c(-c5cc(O)c(O)c(O)c5)[o+]c5cc(O)cc6c5c4-c4c(C(=O)O)cc(O)c(O)c4O6)c(O)c(O)c3-c3c(cc(O)c(O)c3O)C(=O)OC2C1OC(=O)c1cc(O)c(O)c(O)c1)c1cc(O)c(O)c(O)c1` (centres unmarked) [Rosadelphin A1, rosadelphin A1], the inhibition at 20 µg/mL on hyaluronidase (Table 3) amounted to 24.4%. For the same compound, the inhibition at 40 µg/mL stood at 48.2% on hyaluronidase (Table 3) and 50.7% on elastase (Table 8, test concentration 40 μg/mL, read-out: Percent elastase inhibition (%)). The inhibition at 80 µg/mL was 95.3% on hyaluronidase (setting [1]) and 58.1% at elastase (Table 8, test concentration 80 μg/mL, read-out: Percent elastase inhibition (%)). The “hyaluronidase inhibitory activity (in words)” value at hyaluronidase (listed as rosadelphin A1) is “strong activity in a concentration dependent manner; also recorded: strong hyaluronidase inhibitory activity”. Besides, the results for the “Percent elastase inhibition (%)” value at elastase (setting [2]), on elastase (setting [3]) and on elastase (setting [4]) were 31.8%, 40.4% and 49.4%, respectively. Besides, on elastase (Table 8, test concentration 160 μg/mL, read-out: Percent elastase inhibition (%)), the inhibition at 160 µg/mL was found to be 62%. Moreover, the “elastase inhibiting activity (in words)” value was “comparable or more than comparable activity to rosacyanin A1” at elastase and “strong activity in a concentration dependent manner” at elastase (listed as rosadelphin A1). Also, the “Percent collagenase inhibition (%)” value in the test with collagenase Type IV (setting [5]) came out at 42.3%. Moreover, the “collagenase inhibitory activity (in words)” value with collagenase Type IV was “greater activity than the blue rose petal extract”.

For `O=C(OC1C(O)OC2COC(=O)c3cc(Oc4c(-c5ccc(O)c(O)c5)[o+]c5cc(O)cc6c5c4-c4c(C(=O)O)cc(O)c(O)c4O6)c(O)c(O)c3-c3c(cc(O)c(O)c3O)C(=O)OC2C1OC(=O)c1cc(O)c(O)c(O)c1)c1cc(O)c(O)c(O)c1` (centres unmarked) [Rosacyanin A1, rosacyanin A1], on hyaluronidase (Table 3), the inhibition at 20 µg/mL worked out at 24.7% and the inhibition at 40 µg/mL worked out at 49.1%. The inhibition at 80 µg/mL on hyaluronidase (setting [1]) worked out at 93.2%. Also, the “hyaluronidase inhibitory activity (in words)” value on hyaluronidase is “comparable activity to rosadelphin A1”. Further, the “hyaluronidase inhibitory activity (in words)” value at hyaluronidase (listed as rosacyanin A1) is on record as “strong hyaluronidase inhibitory activity”. For the same compound, the “elastase inhibiting activity (in words)” value at elastase is listed as “strong activity”. In addition, the “Percent collagenase inhibition (%)” value in the test with collagenase Type IV (setting [5]) worked out at 52.0%. For the same compound, in the test with collagenase Type IV, the “collagenase inhibitory activity (in words)” value is “greater activity than the blue rose petal extract”.
